Blank lines part the entries; values can stand above or below the compound they belong to.
Experiments:
[1] = in vivo; cited from earlier work
mast cells = settings: cited from earlier work
eosinophil activation = settings: cited from earlier work
[2] = water; cited from earlier work
[3] = 200 mg/day orally; cited from earlier work
[4] = system: LPS-induced TNF-α production; test: acute in vivo model of inflammation (LPS-induced TNF-α release); settings: agent alone (prednisolone at reduced dose)
[5] = system: GRE reporter plasmid in T cells; test: transactivation of a transfected GRE reporter plasmid in T cells; type: cell-based
glucocorticoid receptor = glucocorticoid receptor trafficking (mechanism study); type: cell-based
JNK = JNK activation; type: cell-based
joint swelling = test: chronic in vivo model of inflammation / chronic arthritis model; settings: agent alone (prednisolone at reduced dose)
AP1 = AP1 activation; type: cell-based
NFkB = NFkB activation; type: cell-based
ERK = ERK activation; type: cell-based
TNF-α = test: Rat carrageenan-induced paw edema model: TNF-α in paw tissue by ELISA; type: in vivo; settings: 2.26 mg/kg
Protocol: (§1) A dose-range finding study was performed to determine the anti-inflammatory activity of various ratios of methyl prednisolone acetate and amoxapine in a rat carrageenan-induced paw edema model. […] The molar ratio of methyl prednisolone acetate to amoxapine ranged from 1:1 to 1:300, using total doses of methyl prednisolone acetate of 0.01, 0.03 or 0.1 mg/kg.
(§2) The test agent (a combination of methyl prednisolone acetate and amoxapine), vehicle control, or reference agents (methyl prednisolone acetate, amoxapine, or Depo-Medrol®) were administered in the left hind foot pad of rats. After 60 minutes, paw edema was induced by injection of 100 μl of 1% carrageenan in the same foot pad. The paw volume was measured with a water displacement plethysmometer immediately prior to test agent injection (T−1h), at the time of carrageenan injection (T0h), and at T6h. Animals were euthanized by carbon dioxide inhalation. Paw tissue samples were collected and flash frozen in liquid nitrogen. Samples were assayed for TNF-α by enzyme-linked immunoassay (ELISA).

p38 = p38 activation; type: cell-based
NFAT = NFAT activation, translocation and transactivation; type: cell-based
[6] = system: carrageenan-induced paw edema; test: Rat carrageenan-induced paw edema model: paw swelling; type: in vivo; settings: 2.26 mg/kg, local injection in paw at T-1 hr, Tmax = 6 hrs
Protocol: as §1, §2

endo-exonuclease = settings: cited from earlier work
[7] = biological target: protein tyrosine phosphatase 1B (PTP1B) (Homo sapiens, UniProt P18031); settings: cited from earlier work
[8] = system: phosphatases of regenerating liver (PRL); settings: cited from earlier work
[9] = in vivo; cited from earlier work; remark: listed apart in the source
collagenase = test: IL-1 induced collagenase RNA levels in chondrocytes (FIG. 1D); type: cell-based; settings: pretreatment
stromelysin (MMP-3) mRNA = test: IL-1 induced stromelysin (MMP-3) mRNA expression in chondrocytes, Northern blot; settings: 10^−5 M, 24 hours pretreatment, IL-1β 20 ng/ml
collagenase (MMP-1) mRNA = test: IL-1 induced collagenase (MMP-1) mRNA expression in chondrocytes, Northern blot; settings: 10^−5 M, 24 hours pretreatment, IL-1β 20 ng/ml
[10] = system: AP-1 transcriptional activity; test: IL-1 stimulated AP-1 transcriptional activity (AP-1 driven CAT reporter gene) in chondrocytes; type: cell-based; settings: transfected chondrocytes, IL-1 50 ng/ml, 24 hours, paclitaxel 10^−7 to 10^−5 M
Protocol: Chondrocytes were transfected with constructs containing an AP-1 driven CAT reporter gene, and stimulated with IL-1, IL-1 (50 ng/ml) was added and incubated for 24 hours in the absence and presence of paclitaxel at various concentrations. […] The data noted with an asterisk (*) have significance compared with IL-1-induced CAT activity according to a t-test, P<0.05. The results shown are representative of three independent experiments.

AP-1 = test: IL-1 induced AP-1 binding activity in chondrocyte lysates (FIG. 1C); type: cell-based; settings: lysates from chondrocytes pretreated with paclitaxel
[11] = system: AP-1 DNA binding activity; test: IL-1 induced AP-1 DNA binding activity, gel mobility shift assay of chondrocyte extracts; type: cell-based; settings: chondrocyte lysates, pretreated 10^−7 to 10^−5 M for 24 hours, IL-1β 20 ng/ml
Protocol: Binding activity was assayed with a radiolabeled human AP-1 sequence probe and gel mobility shift assay. Extracts from chondrocytes untreated or treated with various amounts of paclitaxel (10^−7 to 10^−5 M) followed by IL-1β (20 ng/ml) were incubated with excess probe on ice for 30 minutes, followed by non-denaturing gel electrophoresis. The “com” lane contains excess unlabeled AP-1 oligonucleotide. The results shown are representative of three independent experiments.

stromelysin = test: IL-1 induced stromelysin RNA levels in chondrocytes (FIG. 1D); type: cell-based; settings: pretreatment

Chain of protein tyrosine phosphatase 1B (PTP1B) (P18031 whole entry): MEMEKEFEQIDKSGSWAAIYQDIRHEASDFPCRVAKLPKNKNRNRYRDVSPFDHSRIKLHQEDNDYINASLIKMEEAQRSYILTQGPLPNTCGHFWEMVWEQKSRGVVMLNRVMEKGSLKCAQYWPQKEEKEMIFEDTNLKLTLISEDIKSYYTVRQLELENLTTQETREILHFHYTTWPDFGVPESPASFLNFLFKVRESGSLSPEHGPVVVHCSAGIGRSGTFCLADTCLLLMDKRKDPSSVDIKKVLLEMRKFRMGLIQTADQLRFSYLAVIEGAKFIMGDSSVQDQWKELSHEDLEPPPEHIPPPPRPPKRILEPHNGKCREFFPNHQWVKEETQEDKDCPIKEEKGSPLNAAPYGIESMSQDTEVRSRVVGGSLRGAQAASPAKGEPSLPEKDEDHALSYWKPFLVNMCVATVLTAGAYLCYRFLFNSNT

SMILES: O=C(Nc1ccc([N+](=O)[O-])cc1Cl)c1cc(Cl)ccc1O [Niclosamide, niclosamide]
toxicity in mammals [1]: very low toxicity

SMILES: CCOC(=O)N1CCC(=C2c3ccc(Cl)cc3CCc3cccnc32)CC1 [loratadine, Loratadine]
inhibition of mast cells (mast cells): inhibits
inhibition of eosinophil activation (eosinophil activation): inhibits

SMILES: CC(=O)N1CCN(c2ccc(OCC3COC(Cn4ccnc4)(c4ccc(Cl)cc4Cl)O3)cc2)CC1 (centres unmarked) [ketoconazole]
solubility in water (in words) [2]: essentially insoluble
serum concentration [3]: about 3.2 micrograms

glucocorticoid receptor trafficking (glucocorticoid receptor): does not promote
SMILES: Clc1ccc2c(c1)C(N1CCNCC1)=Nc1ccccc1O2 [amoxapine]
effect of the single agents in the acute / LPS model [4]: modest or no benefit
potentiation of prednisolone's ability to transactivate a GRE reporter plasmid [5]: does not potentiate
JNK activation (JNK): Inhibition
effect of the single agents in the chronic model (joint swelling): modest or no benefit
AP1 activation (AP1): partially inhibits
NFkB activation (NFkB): partially inhibits
ERK activation (ERK): unaffected
TNF-α ± SEM (TNF-α): 32.6 ± 10.1 pg/g
p38 activation (p38): Inhibition
NFAT activation, translocation and transactivation (NFAT): block
Edema ± SEM [6]: not significantly different from the vehicle treatment
Edema ± SEM ([6]; listed as Amoxapine): 38.1 ± 3.3%

SMILES: N=C(N)c1ccc(OCCCCCOc2ccc(C(=N)N)cc2)cc1 [pentamidine]
inhibition of the activity of endo-exonuclease (endo-exonuclease): inhibit
inhibition of protein tyrosine phosphatase 1B (PTP1B) [7]: effective inhibitor
inhibition of the oncogenic phosphatases of regenerating liver (PRL) [8]: potent inhibitor

SMILES: CN(C)/N=N/c1[nH]cnc1C(N)=O [Dacarbazine, dacarbazine]
absorption from the GI tract [9]: poorly absorbed

SMILES: CC(=O)O[C@H]1C(=O)[C@@]2(C)[C@H]([C@H](OC(=O)c3ccccc3)[C@]3(O)C[C@H](OC(=O)[C@H](O)[C@@H](NC(=O)c4ccccc4)c4ccccc4)C(C)=C1C3(C)C)[C@]1(OC(C)=O)CO[C@@H]1C[C@@H]2O [paclitaxel]
IL-1 induction of collagenase RNA levels (collagenase): can be inhibited
stromelysin mRNA level (stromelysin (MMP-3) mRNA): complete inhibition
collagenase mRNA level (collagenase (MMP-1) mRNA): complete inhibition
IL-1 induced AP-1 reporter gene CAT activity [10]: reduced IL-1 induced AP-1 reporter gene CAT activity
IL-1 induced binding activity (AP-1): decreased
IL-1 induced AP-1 binding activity [11]: decreased
IL-1 induction of stromelysin RNA levels (stromelysin): can be inhibited

From patent US20070196421A1, “Soft tissue implants and drug combination compositions, and use thereof” (priority 2005, published 2007)
